Assay [1] deals with M. tuberculosis mono-resistant to INH (INHR, ATCC 35822), katG S315T. The format is cell-based, Mycobacterium tuberculosis.
Assay [2] relates to M. tuberculosis mono-resistant to RIF (RMPR, ATCC 35838), rpoB H526Y. The format is cell-based, Mycobacterium tuberculosis.

These results are taken from publication PMC5900025, “Naphthoquinone Derivatives as Scaffold to Develop New Drugs for Tuberculosis Treatment” (Frontiers in Microbiology, 2018).

Values after ≈ are worked out from the molar mass of the structure shown. A value given as a limit tells only on which side of the number the result lay.

The MIC is the least concentration at which growth counts as inhibited. A lower MIC goes with greater potency.

On to `CC1(C)CC2=C(O1)C(=O)c1ccccc1C2=O` [Compound 3, 2,2-Dimethyl-2,3-dihydronaphtho[2,3-b]furan-4,9-dione], for which the MIC in assay [1] and in assay [2] was 54.8 µM (≈ 12.5 µg/mL) in each case.
Consider `O=C1C(Cl)=C(Cl)C(=O)c2ccccc21` [Compound 1, 2,3-Dichloronaphthalene-1,4-dione], for which the minimal inhibitory concentration (MIC) in assay [1] and in assay [2] was 110.6 µM (≈ 25.1 µg/mL) each time.
For `C=CCOC1=CC(=O)c2ccccc2C1=O` [Compound 4, 2-(Allyloxy)naphthalene-1,4-dione], the minimal inhibitory concentration (MIC) in assay [1] and in assay [2] was 234 µM (≈ 50.1 µg/mL) in each case.
Regarding `CO[C@H]1/C=C/O[C@@]2(C)Oc3c(C)c(O)c4c(O)c(c(/C=N/N5CCN(C)CC5)c(O)c4c3C2=O)NC(=O)/C(C)=C\C=C\[C@H](C)[C@H](O)[C@@H](C)[C@@H](O)[C@@H](C)[C@H](OC(C)=O)[C@@H]1C` [RIF, rifampicin, reference compound], the MIC was found to be 0.304 µM (≈ 0.25 µg/mL) in assay [1] and 622.2 µM (≈ 512 µg/mL) in assay [2].
`O=C1C=C(Nc2ccccc2)C(=O)c2ccccc21` [Compound 6, 2-(Phenylamino)naphthalene-1,4-dione]: the MIC amounted to 100.4 µM (≈ 25 µg/mL) in assay [1] and 12.5 µM (≈ 3.12 µg/mL) in assay [2].
On to `CC1(C)CCC2=C(O1)C(=O)c1ccccc1C2=O` [Compound 2, 2,2-Dimethyl-3,4-dihydro-2H-benzo[g]chromene-5, 10-dione], for which the MIC in assay [1] and in assay [2] was 206.6 µM (≈ 50.1 µg/mL) throughout.
As for `NNC(=O)c1ccncc1` [INH, isoniazid, reference compound], the minimal inhibitory concentration (MIC) in assay [1] was 14.6 µM (≈ 2 µg/mL); in assay [2], no more than 0.219 µM.
Taken in the same sequence, the figures for `NC1=CC(=O)c2ccccc2C1=O` [Compound 5, 2-Aminonaphthalene-1,4-dione] were 36.1 µM (≈ 6.25 µg/mL) and 36.1 µM (≈ 6.25 µg/mL).
